From patent US20160368872A1, “COMPOUNDS AND METHODS FOR TREATING CANCERS” (HEALTH RESEARCH, INC., priority 2013, published 2016) come the findings set out here.

Data set [1] deals with CWR22R cells. It counts as cell-based. The procedure:
All compounds were tested for toxicity using 4 cells lines, target cells-CWR22R and non-target cells, Hela, PC3 and MDA-MB-231 (FIGS. 1A-F).
LC50 data of in vitro 72 hours cytotoxicity assay are included in this table for comparison.

Data set [2] is described as follows: plasma concentration after intravenous and intraperitoneal injections (PK). Type of data set: in vivo. To be noted: for bioavailability through IP injection: IP versus IV, doses 50-100 mg/kg; for course of plasma concentration: after intravenous and intraperitoneal injections, 50-100 mg/kg.
The test system of data set [3] is CWR22R cells. Briefly: toxicity of PLA1055 to CWR22R cells depending on time of incubation (LC90, Alamar Blue). Type of data set: cell-based. To be noted: incubation 4-8 hours; survival detected at 72 hours. The protocol: FIG. 21. Toxicity of PLA1055 to CWR22R cells in vitro depending on time of incubation. PLA1055 was added to CWR22R in full range of concentrations for the periods of time shown on the right. After that drug containing media were changed for drug free and survival of cells was detected at 72 hours after start of treatment using Alamar Blue assay (Promega).
An in vitro experiment was run to detect the concentration of PLA1055 needed to kill all tumor cells in vitro (LC90) during different periods of time (30 minutes-72 hours, FIG. 21)).
A general note: Alamar Blue is a resazurin reagent that responds to reducing activity.

The subject of data set [4] is presumable target protein in protein lysates from sensitive CWR22r cells. Briefly: DARTS (Drug Affinity Responsive Target Stability) assay. As to conditions: treated vs untreated. The procedure:
FIG. 24. DARTS (Drug Affinity Responsive Target Stability) assay was performed using c52 and PLA1118. According to this assay these compounds are capable of protecting presumable target protein from protease degradation. Protein lysates from sensitive CWR22r cells were incubated with or without the drug and subsequently digested with the indicated concentration of pronase. A. c52 was used (lane T-treated, M-marker) with indicated concentrations of pronase; ability of c52 to protect its target from protease cleavage was judged based on presence of protein band in the treated lane vs the untreated (UT) control.

The nature of data set [5]: tissue drug concentrations in mice bearing CWR22R tumors. It counts as in vivo, SCID mice. The procedure: (§1) We tested these compounds in an in vivo efficacy experiment using model of CRPC in SCID mice, CWR22R. Two compounds, PLA1079 and 1125, which were synthesized in the amount of 500 mg were tested in full scale experiment with either 5 IV daily injections or 10 IP daily injections. After 5 IP or IV injections intra-tumor concentration of the compounds were measured in few mice from this experiment.
Two other compounds, PLA1148 and 1098 (PK testing in FIGS. 8 and 9) were tested in a small scale efficacy experiment. Upon PK testing of the compound PLA1148 one mouse was injected twice with 10 min interval. However the concentration of the drug in plasma of this mouse was not twice, but >4 times higher than in mice injected once. […] It was decided to utilize this observation in an attempt to get higher plasma and tumor concentration of both compounds. Therefore in the pilot efficacy experiment in the same model of CWR22R cells mice were treated with 2 IP injections with 10 minute interval. Treatment with PLA1098 was carried out for two days. […] However this is so far the highest concentration found in tumor. […]

A further data set has as its system CWR22R tumors. In words: in vivo efficacy, subcutaneous xenografts of CWR22R cells in SCID mice. The protocol: as §1
(§2) Two other compounds, PLA1148 and 1098 (PK testing in FIGS. 8 and 9) were tested in a small scale efficacy experiment. Upon PK testing of the compound PLA1148 one mouse was injected twice with 10 min interval. However the concentration of the drug in plasma of this mouse was not twice, but >4 times higher than in mice injected once. […] It was decided to utilize this observation in an attempt to get higher plasma and tumor concentration of both compounds. Therefore in the pilot efficacy experiment in the same model of CWR22R cells mice were treated with 2 IP injections with 10 minute interval. Treatment with PLA1098 was carried out for two days. […] However this is so far the highest concentration found in tumor.
Pilot efficacy experiments were run for compounds: PLA1163, PLA1148 using the same model of subcutaneous xenografts of CWR22R cells in SCID mice (FIGS. 18 and 19).

Data set [6] can be described thus: toxicity observed in mice of the pilot efficacy experiments. It counts as in vivo. The protocol:
as §2
This compound may be also potentially promising.

The next data set has as its system androgen receptor. Briefly: AR level in cells with inhibited p53 activity. It counts as cell-based. To be noted: MCF7 cells with functionally inactive p53 (R175H, GSE56). The source says:
Also tested was the hypothesis that degradation of androgen receptor in prostate and breast cancer cells may be due to p53 induced accumulation of mdm2, which is also ubiquitin ligase for androgen receptor (FIG. 15). p53 was inactivated in several cell lines using different approaches what led to the blockade of mdm2 accumulation after c52 treatment. However androgen receptor was still degraded in c52 treated cells even in the absence of p53 activation and mdm2 accumulation (FIG. 16).

The test system of the next data set is Caveolin1. In words: expression of Caveolin1 in sensitive versus resistant cells. It counts as cell-based. As to conditions: MDA MB 231 and MCF7 cells. The source says: FIG. 12. Expression of Caveolin1 in sensitive versus resistant cells. Caveolin1 is expressed in resistant MDA MB 231 cells, but not in sensitive MCF7 cells.
Where [7] appears, read: 24 hours after last injection, 2 IP injections with 10 minute interval, two days.

In the data set on CWR22R cells [1], `CC(=O)c1ccc2c(c1)c1ccccc1n2CCCF` [PLA1055] had a CC50 of 40 nM. Moreover, the “plasma concentration at 8 hours” value in data set [2] (8 hours, single IV administration of 50 mg/kg (FIG. 20)) is “below 1 uM”. Besides, the “time up to which compound was detected” value in data set [2] (single IV administration of 50 mg/kg (FIG. 20)) is “up to 24 hours”. Besides, the LC90 in the data set on CWR22R cells [3] came to 2500 nM.
For the compound `CCCn1c2ccccc2c2cc(S(C)(=O)=O)ccc21` [PLA1118], the “protection of target protein band from pronase degradation” value in data set [4] is “faintly”.
In the data set with CWR22R cells [1], `CCCn1c2ccccc2c2c3c(ccc21)C(=O)N(C)C3` [PLA1098] gave a cytotoxic concentration (CC50) of 40 nM. In [5] (100 mg/kg, IP), the “Liver” value was 0 nM and the “Tumor concentration” value lay within 23 to 25 nM. The compound further yielded an Intratumor concentration in data set [5] (2 tested tumors at 24 hours after last injection, 2 IP injections with 10 minute interval, two days) of 25 nM. Also, in data set [5] (setting [7]), the compound in liver entry is “no detectable” and the compound in plasma entry is recorded as “no detectable”. In addition, in data set [2], the “bioavailability through IP injection” value is on record as “very high bioavailability” and the “course of plasma concentration” value is given as “fast reduction of concentration during the first hour”. In the data set with CWR22R tumors (2 IP injections with 10 minute interval for two days, tumors excised 12 days after treatment), the “tumor volume and tumor weight vs vehicle control” value is “certain reduction of tumor volume and tumor weigh in the 1098 treated group vs vehicle control, but not statistically significant”. Further, the in vivo efficacy result with CWR22R tumors (summary statement) is on record as “evidence of in vivo efficacy”. In addition, in data set [6] (2 IP injections with 10 minute interval for two days), the “side effects during the treatment” value is given as “no signs of side effects were noticed”. Moreover, in [6] (summary statement), the signs of toxicity entry was “without any signs of toxicity”. In addition, in data set [4], the “protection of target protein band from pronase degradation” value is given as “protected their targets from degradation”.
For `CCCn1c2ccccc2c2cc(-c3nnco3)ccc21` [PLA1079], the cytotoxic concentration (CC50) in the data set on CWR22R cells [1] is 120 nM. The “Tumor concentration” value in data set [5] (100 mg/kg, IP/IV) fell in the range of 24 to 48 nM. For the same compound, in [2], the “bioavailability through IP injection” value is listed as “very high bioavailability” and the “course of plasma concentration” value is given as “fast reduction of concentration during the first hour”. In the data set on CWR22R tumors (5 IV daily injections or 10 IP daily injections), the in vivo efficacy entry is reported as “absence of in vivo efficacy”. In the data set with androgen receptor, the AR level result is given as “AR is being degraded”. Besides, the “levels of Caveolin1 expression” value with Caveolin1 is listed as “did not change”.
For `CC(=O)c1ccc2c(c1)c1cc(C(C)=O)ccc1n2CCNC(C)C` [CBL 137, reference compound], the AR level result in the data set on androgen receptor is recorded as “AR is being degraded”.

What is called CC50 is the concentration at which the toxic effect on the cells reaches its halfway point. Low readings indicate greater toxicity to the cells, high ones lower toxicity to the cells.
